BindingDB's records for PubMed 35367706 (University of Newcastle, 2022)

Columns and labels:
[1] = Binding affinity to influenza A/Beijing/262/95 H1N1 neuraminidase expressed in baculovirus expression system using sialyl-lactose as substrate
[2] = Inhibition of Influenza A virus (A/Guangdong/03/2009(H1N1)) neuraminidase using 4-MUNANA as substrate preincubated for 1 hr followed by substrate addition and measured after 1 hr by fluorescence assay
[3] = Inhibition of Influenza A virus (A/Guangdong/05/2009(H1N1)) neuraminidase using 4-MUNANA as substrate preincubated for 1 hr followed by substrate addition and measured after 1 hr by fluorescence assay
[4] = Inhibition of Influenza A virus (A/GuangdongSB/01/2009(H1N1)) neuraminidase using 4-MUNANA as substrate preincubated for 1 hr followed by substrate addition and measured after 1 hr by fluorescence assay

| Structure (SMILES) | Ki [1] [µM] | IC50 [2] [µM] | IC50 [3] [µM] | IC50 [4] [µM] |
| --- | --- | --- | --- | --- |
| Nc1c(S(=O)(=O)O)cc(Nc2ccc(Nc3nc(Cl)nc(Nc4ccccc4S(=O)(=O)O)n3)c(S(=O)(=O)O)c2)c2c1C(=O)c1ccccc1C2=O | 2.9 | – | – | – |
| O=S(=O)(O)c1cccc(Nc2nc(Cl)nc(Nc3cccc(S(=O)(=O)O)c3)n2)c1 | 0.13 | – | – | – |
| O=S(=O)(O)c1ccccc1Nc1nc(Cl)nc(Nc2ccccc2S(=O)(=O)O)n1 | 0.28 | – | – | – |
| C/C=C/Oc1cc(C=O)ccc1O | – | 28 | 25 | 27 |
